Peptide text beside a SMILES is read from it.
Experiments:
[1] = target: HLA-B1501 (Homo sapiens, UniProt P01889, A329T/A93T/A95T/C349S/D201E/D98Y/E187L/E204Q/E69M/E70A/K202T/N87E/Q94N/R155S/R180W/S121R/S35A/S48A/V306I/V36M/Y140S/Y91S); assay: Competitive peptide binding assay, CIR-B1501; conditions: HMy2.CIR-B1501 cells, reference Cy5-[…], class from inhibition at 5 and 15 μM, flow cytometry MFI; read-out: Binding affinity with HLA-B1501
Description: (§1) Then, competitive peptide binding assays were performed.

[2] = target: HLA-B1302 (Homo sapiens, UniProt P01889, A65T/A93T/A95T/D138N/D201E/D98Y/E176V/E204Q/E69M/E70A/G107R/K202T/L105A/L119W/N104T/N87E/Q94N/R106L/R155S/R169L/R180L/S101N/S121T/S35A/S48T/V127L/V36M/Y140L/Y91S); assay: Competitive peptide binding assay, CIR-B1302; conditions: HMy2.CIR-B1302 cells, reference Cy5-MMWYWGPSL, class from inhibition at 5 and 15 μM, flow cytometry MFI; read-out: Binding affinity with HLA-B1302
Description: as §1

[3] = target: HLA-B4801 (Homo sapiens, UniProt P01889, A269T/A93T/A95T/D138N/D98Y/E176V/N87E/Q94N/R180L/T167S/W171L/Y91S); assay: Competitive peptide binding assay, CIR-B4801; conditions: HMy2.CIR-B4801 cells, reference Cy5-[…], class from inhibition at 5 and 15 μM, flow cytometry MFI; read-out: Binding affinity with HLA-B4801
Description: as §1

[4] = target: HLA-B4001 (Homo sapiens, UniProt P01889, A65T/A93T/A95T/D138N/D98Y/E176V/E69K/N87E/Q56L/Q94N/R180L/S121R/S35A/S48T/T167S/V36M/W171L/Y33H/Y91S); assay: Competitive peptide binding assay, CIR-B4001; conditions: HMy2.CIR-B4001 cells, reference Cy5-[…], class from inhibition at 5 and 15 μM, flow cytometry MFI; read-out: Binding affinity with HLA-B4001
Description: as §1

[5] = target: HLA-B4601 (Homo sapiens, UniProt P01889, A329T/A93R/C349S/D201E/E100V/E187L/E204Q/E69M/E70A/I90K/K202T/N87E/R155S/R180W/S121R/S35A/S48A/V306I/V36M/Y140S); assay: Competitive peptide binding assay, CIR-B4601; conditions: for IC50: HMy2.CIR-B4601 cells, reference Cy5-[…], class from inhibition at 5 and 15 μM, flow cytometry MFI, read-out: Binding affinity with HLA-B4601; for inhibition at 5 µM: read-out: Inhibition % of Cy5-reference peptide binding, CIR-B4601, 5μM peptide; for inhibition at 15 µM: read-out: Inhibition % of Cy5-reference peptide binding, CIR-B4601, 15μM peptide
Description: as §1

[6] = target: HLA-B3501 (Homo sapiens, UniProt P01889, A329T/A93T/A95T/C349S/D201E/D98Y/E176V/E187L/E204Q/E69T/I218V/K202T/L119I/Q94N/R155S/R180L/S121R/S35A/S48A/T118I/V127L/V306I/V36M/Y140S/Y91F); assay: Competitive peptide binding assay, CIR-B3501; conditions: HMy2.CIR-B3501 cells, reference Cy5-[…], class from inhibition at 5 and 15 μM, flow cytometry MFI; read-out: Binding affinity with HLA-B3501
Description: as §1

[7] = target: HLA-B1301 (Homo sapiens, UniProt P01889, A65T/A93T/A95T/D138N/D201E/D98Y/E176V/E204Q/E69M/E70A/G107R/K202T/L105A/L119I/N104T/N87E/Q94N/R106L/R155S/R169L/R180L/S101N/S121R/S35A/S48T/T118I/V127L/V36M/Y140L/Y91S); assay: Competitive peptide binding assay, CIR-B1301; conditions: HMy2.CIR-B1301 cells, reference Cy5-[…], class from inhibition at 5 and 15 μM, flow cytometry MFI; read-out: Binding affinity with HLA-B1301
Description: as §1

[8] = target: HLA-B1502 (Homo sapiens, UniProt P01889, A329T/A93T/A95T/C349S/D201E/D98Y/E187L/E204Q/E69M/E70A/H137Y/K202T/L119I/Q94N/R155S/R180L/S121R/S35A/S48A/T118I/V306I/V36M/Y140S/Y91S); assay: Competitive peptide binding assay, CIR-B1502; conditions: HMy2.CIR-B1502 cells, reference Cy5-[…], class from inhibition at 5 and 15 μM, flow cytometry MFI; read-out: Binding affinity with HLA-B1502
Description: as §1

[9] = target: HLA-B5801 (Homo sapiens, UniProt P01889, A329T/C349S/D201E/D98Y/E176V/E187L/E204Q/E69T/G107R/I218V/I90N/K202T/L105A/L119I/N104I/N87E/Q89R/Q94S/R106L/R155S/R180L/R86G/S101N/S121R/S35A/S48A/T118I/V127L/V306I/V36M/Y140S/Y91M); assay: Competitive peptide binding assay, CIR-B5801; conditions: HMy2.CIR-B5801 cells, reference Cy5-[…], class from inhibition at 5 and 15 μM, flow cytometry MFI; read-out: Binding affinity with HLA-B5801
Description: as §1

[10] = target: HLA-B5101 (Homo sapiens, UniProt P01889, A329T/A93T/A95T/C349S/D138N/D201E/D98Y/E187L/E204Q/E69T/G107R/I218V/K202T/L105A/L119W/N104I/Q94N/R106L/R155S/R180L/S101N/S121T/S35A/S48A/V306I/V36M/Y195H/Y91F); assay: Competitive peptide binding assay, CIR-B5101; conditions: HMy2.CIR-B5101 cells, reference Cy5-[…], class from inhibition at 5 and 15 μM, flow cytometry MFI; read-out: Binding affinity with HLA-B5101
Description: as §1

[11] = target: T1, HLA-B0702 (Homo sapiens, UniProt P01889); assay: Competitive peptide binding assay, CIR-B0702; conditions: HMy2.CIR-B0702 cells, reference Cy5-[…], class from inhibition at 5 and 15 μM, flow cytometry MFI
T1 construct: expressed in transfected cells; host or cells: HMy2.CIR
Description: as §1

[12] = target: HLA-B4403 (Homo sapiens, UniProt P01889, A223V/A65T/A93T/A95T/D201E/D98Y/E176V/E187L/E204Q/E69K/G107R/H137Y/K202T/L105A/L119I/N104T/N87E/Q56L/Q94N/R106L/R155S/R180L/S101N/S121R/S35A/S48T/T118I/V36M/W191S/Y140D/Y91S); assay: Competitive peptide binding assay, CIR-B4403; conditions: HMy2.CIR-B4403 cells, reference Cy5-CYMEAVAL, class from inhibition at 5 and 15 μM, flow cytometry MFI; read-out: Binding affinity with HLA-B4403
Description: as §1

Structure (SMILES): C[C@H](NC(=O)[C@H](CO)NC(=O)[C@@H](N)CCCCN)C(=O)NCC(=O)N[C@@H](Cc1ccccc1)C(=O)N1CCC[C@H]1C(=O)N[C@@H](Cc1ccccc1)C(=O)N[C@@H](CC(N)=O)C(=O)N[C@@H](CCCCN)C(=O)N[C@@H](Cc1c[nH]c2ccccc12)C(=O)O [Epitope Y306] (H-KSAGFPFNKW-OH; N-terminus and C-terminus assumed)
- IC50 [1]: > 15 µM
- IC50 [2]: < 5 µM
- IC50 [3]: > 15 µM
- IC50 [4]: > 15 µM

Structure (SMILES): CC[C@H](C)[C@H](NC(=O)[C@H](C)NC(=O)CNC(=O)[C@@H](NC(=O)[C@H](Cc1ccc(O)cc1)NC(=O)[C@@H](NC(=O)[C@@H](N)CC(C)C)[C@@H](C)O)[C@@H](C)O)C(=O)N[C@@H](CCCCN)C(=O)N[C@@H](CC(C)C)C(=O)O [Epitope Y243] (H-LTYTGAIKL-OH; N-terminus and C-terminus assumed)
- IC50 [5]: < 5 µM
- inhibition at 5 µM [5]: 77.3%
- inhibition at 15 µM [5]: 94%
- IC50 [6]: > 15 µM
- IC50 [1]: > 15 µM
- IC50 [7]: > 15 µM
- IC50 [3]: > 15 µM
- IC50 [8]: > 15 µM

Structure (SMILES): CC(C)C[C@H](NC(=O)[C@H](CCC(=O)O)NC(=O)[C@H](CCCCN)NC(=O)[C@H](Cc1ccccc1)NC(=O)[C@H](CO)NC(=O)[C@@H](N)CC(C)C)C(=O)N[C@@H](CC(C)C)C(=O)N[C@H](C(=O)N[C@@H](Cc1ccc(O)cc1)C(=O)O)C(C)C [Epitope Y142] (H-LSFKELLVY-OH; N-terminus and C-terminus assumed)
- IC50 [6]: > 15 µM
- IC50 [1]: 5 to 15 µM
- IC50 [9]: < 5 µM
- IC50 [3]: > 15 µM
- IC50 [8]: > 15 µM
- IC50 [4]: > 15 µM

Structure (SMILES): CC[C@H](C)[C@H](NC(=O)[C@H](C)NC(=O)[C@H](C)NC(=O)[C@H](CC(N)=O)NC(=O)CNC(=O)[C@H](CC(=O)O)NC(=O)[C@H](CCC(N)=O)NC(=O)[C@H](C)NC(=O)[C@@H](N)Cc1ccccc1)C(=O)O [Epitope Y246] (H-FAQDGNAAI-OH; N-terminus and C-terminus assumed)
- IC50 [6]: > 15 µM
- IC50 [1]: > 15 µM
- IC50 [9]: > 15 µM
- IC50 [2]: > 15 µM
- IC50 [7]: > 15 µM
- IC50 [3]: > 15 µM
- IC50 [8]: > 15 µM

Structure (SMILES): CSCC[C@H](NC(=O)[C@H](C)NC(=O)[C@H](CCC(=O)O)NC(=O)[C@H](Cc1ccc(O)cc1)NC(=O)[C@H](Cc1ccccc1)NC(=O)[C@H](CCC(=O)O)NC(=O)[C@@H]1CCCN1C(=O)[C@H](CCC(=O)O)NC(=O)[C@@H](N)Cc1c[nH]c2ccccc12)C(=O)O [Epitope Y200] (H-WEPEFYEAM-OH; N-terminus and C-terminus assumed)
- IC50 [6]: > 15 µM
- IC50 [1]: > 15 µM
- IC50 [9]: > 15 µM
- IC50 [2]: > 15 µM
- IC50 [7]: > 15 µM
- IC50 [3]: > 15 µM

Structure (SMILES): CC[C@H](C)[C@H](NC(=O)[C@H](CC(N)=O)NC(=O)[C@H](CCCCN)NC(=O)[C@H](Cc1ccccc1)NC(=O)[C@@H](NC(=O)[C@@H](N)Cc1ccccc1)C(C)C)C(=O)N[C@@H](CC(=O)O)C(=O)NCC(=O)N[C@@H](Cc1ccc(O)cc1)C(=O)O [Epitope Y172] (H-FVFKNIDGY-OH; N-terminus and C-terminus assumed)
- IC50 [5]: > 15 µM
- IC50 [6]: 5 to 15 µM
- IC50 [1]: < 5 µM
- IC50 [10]: > 15 µM
- IC50 [11]: > 15 µM
- IC50 [9]: < 5 µM
- IC50 [2]: > 15 µM
- IC50 [7]: > 15 µM
- IC50 [12]: > 15 µM
- IC50 [8]: 5 to 15 µM
- IC50 [4]: > 15 µM

Structure (SMILES): CC(C)C[C@H](NC(=O)[C@H](Cc1c[nH]cn1)NC(=O)[C@H](Cc1ccccc1)NC(=O)[C@@H](NC(=O)[C@H](CC(=O)O)NC(=O)[C@H](C)NC(=O)[C@H](Cc1ccc(O)cc1)NC(=O)[C@H](CCC(=O)O)NC(=O)[C@@H](N)CCC(N)=O)C(C)C)C(=O)O [Epitope Y71] (H-QEYADVFHL-OH; N-terminus and C-terminus assumed)
- IC50 [6]: 5 to 15 µM
- IC50 [1]: 5 to 15 µM
- IC50 [10]: > 15 µM
- IC50 [9]: > 15 µM
- IC50 [2]: > 15 µM
- IC50 [4]: 5 to 15 µM

Structure (SMILES): CC[C@H](C)[C@H](NC(=O)[C@H](CC(=O)O)NC(=O)[C@H](CCCNC(=N)N)NC(=O)CNC(=O)[C@H](Cc1ccccc1)NC(=O)[C@H](CCC(N)=O)NC(=O)[C@H](CCC(N)=O)NC(=O)[C@H](Cc1ccccc1)NC(=O)[C@@H]1CCCN1C(=O)[C@@H](N)CC(C)C)C(=O)O [Epitope Y282] (H-LPFQQFGRDI-OH; N-terminus and C-terminus assumed)
- IC50 [1]: 5 to 15 µM
- IC50 [7]: > 15 µM
- IC50 [3]: > 15 µM
- IC50 [8]: > 15 µM

Structure (SMILES): CSCC[C@H](NC(=O)[C@H](CCCCN)NC(=O)CN)C(=O)N[C@@H](CCCCN)C(=O)N[C@@H](CC(=O)O)C(=O)N[C@@H](CC(C)C)C(=O)N[C@@H](CO)C(=O)N1CCC[C@H]1C(=O)N[C@@H](CCCNC(=N)N)C(=O)N[C@@H](Cc1c[nH]c2ccccc12)C(=O)O [Epitope Y224] (H-GKMKDLSPRW-OH; N-terminus and C-terminus assumed)
- IC50 [5]: > 15 µM
- inhibition at 5 µM [5]: 32.3%
- inhibition at 15 µM [5]: 52.3%
- IC50 [6]: > 15 µM
- IC50 [1]: > 15 µM
- IC50 [7]: > 15 µM
- IC50 [3]: 5 to 15 µM

Structure (SMILES): CC(C)C[C@H](N)C(=O)N[C@H](C(=O)N[C@@H](CCCCN)C(=O)N1CCC[C@H]1C(=O)N[C@@H](CO)C(=O)N[C@@H](Cc1ccccc1)C(=O)N[C@@H](Cc1ccc(O)cc1)C(=O)N[C@H](C(=O)N[C@@H](Cc1ccc(O)cc1)C(=O)O)C(C)C)C(C)C [Epitope Y125] (H-LVKPSFYVY-OH; N-terminus and C-terminus assumed)
- IC50 [1]: < 5 µM
- IC50 [9]: 5 to 15 µM
- IC50 [2]: > 15 µM
- IC50 [3]: > 15 µM
- IC50 [8]: > 15 µM

Reference: PMC12133982, “Predominant T-cell epitopes of SARS-CoV-2 restricted by multiple prevalent HLA-B and HLA-C allotypes in Northeast Asia” (Frontiers in Immunology, 2025)
